For series [1], the system named is metastatic pulmonary osteosarcoma. Nature of the series: Aerosol treatment of dog with metastatic pulmonary osteosarcoma. The series is classed as in vivo. The following applies: control dogs (n=50), gemcitabine alone. Here is the method: A dog with extensive metastatic pulmonary osteosarcoma was treated with 60% perflubron emulsion (PFCE) containing 9 mg/mL gemcitabine (GCB) (PFCE-GCB=1000 mg GCB in 110 mL 60% perflubron emulsion). Aerosolized PFCE-GCB was delivered to the lungs of the dog twice weekly using an AeroTech™ II nebulizer (Biodex Medical Systems, Inc., Shirley, NY).
Treatment was discontinued at 6 months.
Control dogs (n=50) received gemcitabine alone.

The conditions of series [2]: oral (drink); cited from earlier work.

These results are taken from patent publication US12239719B2, “Fluorochemical targeted therapies” (MT RESEARCH, LLC, priority 2016, dated 2025).

In the case of `Nc1ccn([C@@H]2O[C@H](CO)[C@@H](O)C2(F)F)c(=O)n1` [gemcitabine], the durable tumor eradication result in series [1] is on record as “tumors returned in all control cases”. With `COC(=O)c1ccc2c(c1)NC(=O)/C2=C(\Nc1ccc(N(C)C(=O)CN2CCN(C)CC2)cc1)c1ccccc1` [nintedanib], the fraction absorbed in series [2] was 5%.
